These are literature values, as cited in patent publication US4746734A, “Partially methylated cyclodextrins and process for producing the same” (Sanraku Incorporated, priority 1985, dated 1988).

Each structure is given as a SMILES string.

The conditions of this data set: background statement.

Take `OC[C@H]1O[C@@H]2O[C@H]3[C@H](O)[C@@H](O)[C@@H](O[C@H]4[C@H](O)[C@@H](O)[C@@H](O[C@H]5[C@H](O)[C@@H](O)[C@@H](O[C@H]6[C@H](O)[C@@H](O)[C@@H](O[C@H]7[C@H](O)[C@@H](O)[C@@H](O[C@H]8[C@H](O)[C@@H](O)[C@@H](O[C@H]1[C@H](O)[C@H]2O)O[C@@H]8CO)O[C@@H]7CO)O[C@@H]6CO)O[C@@H]5CO)O[C@@H]4CO)O[C@@H]3CO` [β-CD]: the “solubility in water (description of prior art)” value is “particularly low in water solubility”.
